Measured values as given in patent US20230119479A1, “A HISTONE DEACETYLASE INHIBITOR HAVING A NITROGEN-CONTAINING AROMATIC HETEROCYCLYL GROUP” (SHIONOGI & CO., LTD., priority 2019, published 2023).

Columns and labels:
[1] = target: T1, human ether-a-go-go related gene (hERG) channel (Homo sapiens, UniProt Q12809); assay: hERG test (whole cell patch clamp); type: cell-based; details: CHO cells expressing hERG; concentration not given
T1 construct: expressed in transfected cells; host or cells: CHO cells
Source text: For the purpose of assessing risk of an electrocardiogram QT interval prolongation of the compound of the present invention, effects of the compound of the present invention on delayed rectifier K^+ current (IKr), which plays an important role in the ventricular repolarization process, was studied using CHO cells expressing human ether-a-go-go related gene (hERG) channel.
After a cell was retained at a membrane potential of −80 mV by whole cell patch clamp method using an automated patch clamp system (QPatch; Sophion Bioscience A/S) and gave a leak potential of −50 mV, IKr induced by depolarization pulse stimulation at +20 mV for 2 seconds, and further, repolarization pulse stimulation at −50 mV for 2 seconds, was recorded. A vehicle, which was the 0.1% dimethyle sulfoxide solution in extracellular solution (NaCl: 145 mmol/L, KCl: 4 mmol/L, CaCl2: 2 mmol/L, MgCl2: 1 mmol/L, glucose:10 mmol/L, HEPES (4-(2-hydroxyethyl)-1-piperazineethanesulfonic acid): 10 mmol/L, pH7.4), or the compound of the present invention had been dissolved at an objective concentration in the extracellular solution was applied to the cell at room temperature for 7 minutes or more. From the recording IKr, an absolute value of the tail peak current was measured based on the current value at the resting membrane potential using analysis software (QPatch assay software; Sophion Bioscience A/S). Further, the % inhibition of tail peak current for the compound of the present invention relative to the tail peak current after application of the vehicle was calculated to assess influence of the compound of the present invention on IKr. The dilution concentration and dilution solvent were changed as necessary.

[2] = Platelet toxicity test using human blood progenitor cells (WST); type: cell-based; details: human bone marrow CD34+ progenitor cells, maximum concentration 25 μM
Protocol: Test Example 2: Platelet Toxicity Test Using Human Blood Progenitor Cells
Human bone marrow CD34+ progenitor cells (Lonza, 2M-101B) stored at −80° C. were thawed, spun down at 150 g for 10 minutes at 20° C., and a medium (StemSpan Expansion Supplement, STEM CELL TECHNOLOGIES, ST-02696) to which cytokines (StemSpan SFEM II, STEM CELL TECHNOLOGIES, ST-09655) was added was added to adjust to 2×10^4/well, the mixture was seeded in 12well non-coat dish (Corning, 3513), was incubated for 10 days at 37° C., 5% CO2. After 10 days, the cells were collected and spun down at 150 g for 10 minutes at 20° C., and a medium (StemSpan Expansion Supplement) containing cytokines (StemSpan SFEM II) was added so that the number of cells became 2×10^5 cells/ml. 50 μl of the cell suspension was seeded to each well of a 96-well plate (Corning, 3596) and allowed to stand overnight in an incubator at 37° C., 5% CO2. The next day, 50 μl of the test compound was treated to each well and allowed to stand for 48 hours in the incubator at 37° C., 5% CO2 (n=2). At this time, the test compound dissolved in 100% DMSO was serially diluted with DMSO at a 3-fold ratio, and then a medium containing cytokine was added to adjust the final concentration to 25, 8.33, 2.78, 0.93, 0.31, 0.1 μM. After that, 10 μl of WST (Cell count reagent SF, Nacalai Tesque Inc., 07553-44) was added to each well, and the mixture was allowed to stand in the incubator for 4 hours at 37° C., 5% CO2, and then the multi-label reader 2030 ARVO X4 (PerkinElmer) was used to measure the absorbance. At this time, the absorbance at 450 nm and the absorbance at 620 nm were obtained, and the difference between 450 nm and 620 nm was used as the measured value. The measured values were analyzed by Excel and TIBCO Spotfire, and IC50 values were calculated. At this time, for control (−), the well without cells was set as n=6 for one row, and the average value was calculated, and for control (+), the well in which DMSO was added to the cells so as to have the same concentration as the compound treatment group was set as n=6 for one row, and the average value was calculated and corrected for each plate. For the test compound, the average value of n=2 was used.

[3] = BA test (oral absorption); type: in vivo; details: plasma; mice or rats; oral vs intravenous administration
Protocol: Materials and methods for experiments to evaluate oral absorption (1) Experimental animals: mice or rats were used. (2) Rearing condition: mice or rats were allowed free access to solid feed and sterilized tap water. (3) Setting of dosage and grouping: Oral administration and intravenous administration were performed with the predetermined dosage. Grouping was set as below. (Dosage was changed per compound)
Oral administration 2 to 60 μmol/kg or 1 to 30 mg/kg (n=2 to 3)
Intravenous administration 1 to 30 μmol/kg or 0.5 to 10 mg/kg (n=2 to 3)
(4) Preparation of administration solutions: Oral administration was performed as suspension or solution. Intravenous administration was performed after solubilization. (5) Routes of administration: Oral administration was performed mandatory into the stomach by oral sonde. Intravenous administration was performed from caudal vein by syringes with needle. (6) Evaluation items: Blood was collected serially and concentration of a compound of the present invention in plasma was measured by LC/MS/MS. (7) Statistical analysis: About transition of concentration of a compound of the present invention in plasma, the area under the plasma concentration versus time curve (AUC) was calculated by non-linear least-squares method program, and bioavailability (BA) of a compound of the present invention was calculated from dosages and AUCs of the oral administration group and the intravenous administration group. The dilution concentration or the dilution solvent were changed as necessary.

[4] = target: T2, HDAC2 Human recombinant C-terminal FLAG-tag (Homo sapiens, UniProt Q92769); assay: Measurement of HDAC2 enzyme inhibitory activity (HTRF); type: biochemical; details: recombinant HDAC2, H3K9ac peptide, 3 hours room temperature; read-out: HDAC2 IC50
T2 construct: FLAG (C); purchased BPS Bioscience 50052
Summary of the method: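 Compounds were tested at 8 points in 3-fold dilutions from 99 μM final (n=2) against FLAG-tagged HDAC2 with biotinylated H3K9ac (1-21) peptide (0.6 μM as added). The reaction ran 3 h at room temperature in Tris pH 8.0 buffer, then was stopped with SAHA. Deacetylated product was detected by HTRF (Eu-anti-H3K9me0 antibody, streptavidin-XL665) as the 665/615-620 nm ratio.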

T1 sequence (Q12809 whole entry): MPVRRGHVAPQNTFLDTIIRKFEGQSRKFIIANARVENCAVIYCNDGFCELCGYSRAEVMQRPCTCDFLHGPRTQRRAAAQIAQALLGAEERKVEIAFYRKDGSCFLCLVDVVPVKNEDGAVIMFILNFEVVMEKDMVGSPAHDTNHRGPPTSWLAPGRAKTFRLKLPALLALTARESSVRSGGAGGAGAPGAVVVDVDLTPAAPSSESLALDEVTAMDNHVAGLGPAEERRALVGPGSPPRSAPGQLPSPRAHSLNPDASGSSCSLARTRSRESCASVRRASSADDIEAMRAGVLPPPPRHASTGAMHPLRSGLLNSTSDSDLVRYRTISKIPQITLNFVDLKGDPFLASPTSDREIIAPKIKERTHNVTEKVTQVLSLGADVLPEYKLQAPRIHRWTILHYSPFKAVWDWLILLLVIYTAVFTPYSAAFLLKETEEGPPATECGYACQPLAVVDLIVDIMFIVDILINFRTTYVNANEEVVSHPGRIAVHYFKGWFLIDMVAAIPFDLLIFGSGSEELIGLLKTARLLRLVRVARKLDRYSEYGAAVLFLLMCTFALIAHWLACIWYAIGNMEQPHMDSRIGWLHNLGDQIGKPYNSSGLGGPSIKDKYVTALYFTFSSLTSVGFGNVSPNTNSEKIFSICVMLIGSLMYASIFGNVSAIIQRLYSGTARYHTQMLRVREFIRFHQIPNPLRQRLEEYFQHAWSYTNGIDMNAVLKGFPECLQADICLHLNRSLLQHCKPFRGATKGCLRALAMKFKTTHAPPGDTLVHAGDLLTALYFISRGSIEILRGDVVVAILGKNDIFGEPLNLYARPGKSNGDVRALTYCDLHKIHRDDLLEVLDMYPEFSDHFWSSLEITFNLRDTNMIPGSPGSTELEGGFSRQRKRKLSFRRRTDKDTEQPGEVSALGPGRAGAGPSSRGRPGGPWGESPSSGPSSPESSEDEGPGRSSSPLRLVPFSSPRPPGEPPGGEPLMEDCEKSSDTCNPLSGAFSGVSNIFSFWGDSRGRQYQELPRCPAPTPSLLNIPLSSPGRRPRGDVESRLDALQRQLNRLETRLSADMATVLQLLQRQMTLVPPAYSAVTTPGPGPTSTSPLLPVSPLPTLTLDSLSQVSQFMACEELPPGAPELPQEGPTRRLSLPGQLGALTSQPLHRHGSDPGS
T2 sequence (Q92769 whole entry): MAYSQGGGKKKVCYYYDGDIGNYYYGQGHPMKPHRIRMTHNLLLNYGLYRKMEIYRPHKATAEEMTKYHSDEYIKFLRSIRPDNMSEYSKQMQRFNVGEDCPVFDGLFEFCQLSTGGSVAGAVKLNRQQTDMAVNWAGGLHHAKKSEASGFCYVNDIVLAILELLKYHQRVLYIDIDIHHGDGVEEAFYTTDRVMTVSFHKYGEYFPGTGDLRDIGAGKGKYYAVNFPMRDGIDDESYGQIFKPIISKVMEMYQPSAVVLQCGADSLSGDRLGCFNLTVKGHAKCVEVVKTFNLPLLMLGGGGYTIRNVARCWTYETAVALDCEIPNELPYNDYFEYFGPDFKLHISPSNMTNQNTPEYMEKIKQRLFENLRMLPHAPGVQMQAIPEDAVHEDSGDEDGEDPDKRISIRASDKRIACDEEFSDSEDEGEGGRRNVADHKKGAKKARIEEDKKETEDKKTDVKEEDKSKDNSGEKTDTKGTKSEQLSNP

SMILES | % inhibition of tail peak current (IKr) [1] [%] | IC50 at 48 h [2] [nM] | bioavailability [3] [%] | IC50 [4] [nM]
Cn1cc(-c2ccc(C(=O)Nc3cc(-c4cccs4)ccc3N)nc2)cn1 [Compound I-003] | 17.1 | > 25000 | 33.8 | 310
Cn1cc(-c2cnc(C(=O)Nc3cc(-c4cccs4)ccc3N)cn2)cn1 [Compound I-006] | 14.3 | > 25000 | 35.6 | 54
